# Assay results: ChEMBL document CHEMBL1201862, “PubChem BioAssay data set” (2004)
#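 In this assay, cells in 96-well plates receive the compound at five concentrations for 48 hours. Endpoints are linearly interpolated between the surrounding concentrations. At the GI50, growth is halved.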 Calls of active or inactive are those of the source. Cut-off read from the data, not from the text of the source: active = GI50 up to about 1.1 µM and inactive = higher.
# Assays:
# Experiment in all cases: NCI anticancer screen, dose series, 48 h
# CAKI-1 = tested on: CAKI-1
# UACC-62 = tested on: UACC-62
# RXF 393 = tested on: RXF 393
# UACC-257 = tested on: UACC-257
# SK-MEL-2 = tested on: SK-MEL-2
# HL-60 = tested on: HL-60
# RPMI-8226 = tested on: RPMI-8226
# OVCAR-3 = tested on: OVCAR-3
# LOX IMVI = tested on: LOX IMVI
# K562 = tested on: K562
# M14 = tested on: M14
# SK-MEL-28 = tested on: SK-MEL-28
# KM12 = tested on: KM12
# NCI-H460 = tested on: NCI-H460
# SF-539 = tested on: SF-539
# UO-31 = tested on: UO-31
# U-251 = tested on: U-251
SMILES,GI50 (CAKI-1),GI50 (UACC-62),GI50 (RXF 393),GI50 (UACC-257),GI50 (SK-MEL-2),GI50 (HL-60),GI50 (RPMI-8226),GI50 (OVCAR-3),GI50 (LOX IMVI),GI50 (K562),GI50 (M14),GI50 (SK-MEL-28),GI50 (KM12),GI50 (NCI-H460),GI50 (SF-539),GI50 (UO-31),GI50 (U-251)
CCOC(=O)C(C)c1c(C(=O)c2ccc(C)nc2)c2ccccc2n1C (centres undefined),> 100 µM (inactive),> 100 µM (inactive),> 100 µM (inactive),> 100 µM (inactive),82.8 µM (inactive),> 100 µM (inactive),72.1 µM (inactive),> 100 µM (inactive),> 100 µM (inactive),> 100 µM (inactive),> 100 µM (inactive),> 100 µM (inactive),> 100 µM (inactive),> 100 µM (inactive),–,–,–
Cc1cc(N(CCC#N)CCC#N)ccc1/N=N/c1ccc(S(N)(=O)=O)cc1,28.4 µM (inactive),> 100 µM (inactive),> 100 µM (inactive),> 100 µM (inactive),> 100 µM (inactive),> 100 µM (inactive),> 100 µM (inactive),> 100 µM (inactive),> 100 µM (inactive),> 100 µM (inactive),> 100 µM (inactive),> 100 µM (inactive),> 100 µM (inactive),–,> 100 µM (inactive),85.5 µM (inactive),> 100 µM (inactive)
CCCCCCCCCCCCCCCCCC(=O)OCC(CN(C)CCN(C)C)OC(=O)CCCCCCCCCCCCCCCCC (centres undefined),> 100 µM (inactive),> 100 µM (inactive),> 100 µM (inactive),> 100 µM (inactive),> 100 µM (inactive),–,> 100 µM (inactive),> 100 µM (inactive),> 100 µM (inactive),15.8 µM (inactive),> 100 µM (inactive),> 100 µM (inactive),88.5 µM (inactive),> 100 µM (inactive),–,> 100 µM (inactive),> 100 µM (inactive)
CC(=O)N1[C@H](C(=O)O)CS[C@H]1c1ccncc1,> 100 µM (inactive),> 100 µM (inactive),> 100 µM (inactive),> 100 µM (inactive),–,> 100 µM (inactive),> 100 µM (inactive),> 100 µM (inactive),> 100 µM (inactive),> 100 µM (inactive),> 100 µM (inactive),> 100 µM (inactive),> 100 µM (inactive),> 100 µM (inactive),> 100 µM (inactive),> 100 µM (inactive),–
Cc1ccc(S(=O)(=O)OCOS(=O)(=O)c2ccc(C)cc2)cc1,–,> 10 µM (inactive),> 100 µM (inactive),> 100 µM (inactive),> 100 µM (inactive),> 100 µM (inactive),> 100 µM (inactive),> 100 µM (inactive),> 100 µM (inactive),> 100 µM (inactive),> 100 µM (inactive),> 100 µM (inactive),> 100 µM (inactive),58.1 µM (inactive),> 100 µM (inactive),> 100 µM (inactive),> 100 µM (inactive)
O=C1Sc2sc(=S)sc2SC1c1ccccc1 (centres undefined),1 µM (active),26.8 µM (inactive),28.4 µM (inactive),> 74.3 µM (inactive),> 65 µM (inactive),20 µM (inactive),46.9 µM (inactive),29.8 µM (inactive),30.8 µM (inactive),32.7 µM (inactive),–,> 45.6 µM (inactive),> 80.9 µM (inactive),80.7 µM (inactive),74 µM (inactive),39 µM (inactive),52.5 µM (inactive)
C#C[C@]1(O)CCC2C3CCc4cc(Oc5nc(F)nc(-c6c7cc8ccccc8cc7c7n6CCS7)n5)ccc4C3CCC21C (some centres undefined),–,20.8 µM (inactive),28.1 µM (inactive),77.6 µM (inactive),28.8 µM (inactive),36.7 µM (inactive),41.5 µM (inactive),44.7 µM (inactive),43 µM (inactive),37.7 µM (inactive),29.2 µM (inactive),48.9 µM (inactive),33.1 µM (inactive),33.1 µM (inactive),30.1 µM (inactive),> 100 µM (inactive),39.4 µM (inactive)
CSC(SC)=C1Sc2cccc(Cl)c2S1,43 µM (inactive),95.1 µM (inactive),43.7 µM (inactive),> 100 µM (inactive),17.9 µM (inactive),18.3 µM (inactive),36.2 µM (inactive),–,42.6 µM (inactive),23.9 µM (inactive),82 µM (inactive),> 100 µM (inactive),83 µM (inactive),> 100 µM (inactive),74.6 µM (inactive),52.5 µM (inactive),65.2 µM (inactive)
